Laboratory results: patent US8268848B2, “Cyclopropane compound” (Eisai R&D Management Co., Ltd., priority 2010, dated 2012)
Read-outs that look alike come from different tables or passages of the source.

Legend:
rats = details: cited from earlier work
normal humans = details: cited from earlier work
patients with insomnia = details: cited from earlier work
mice (C57BL/6NCrlCrLj) = assay: Sleep experiment (EEG/EMG) in mice; type: in vivo; details: for minimum effective dose (MED): oral, doses 0.3 to 100 mg/kg, accumulated sleep time within three hours after administration
Description: As a method for measuring the influence of the present compound on sleep time, electroencephalogram (EEG) and electromyogram (EMG) measurements were carried out in mice (C57BL/6NCrlCrLj).
In order to measure brain waves and muscle signals, EEG and EMG electrode implantation was performed on individual mice, and the mice were then housed in a state in which they could freely move and habituate in individual recording cages for 1 week or longer. Thereafter, amplified EEG and EMG signals were digitally recorded.
Mice received either oral administration of vehicle or test compound in vehicle, after which sleep/wake behavior of mice was recorded for 3 hours.
For sleep analysis, automatic analysis software from Kissei Comtec Co., Ltd. was used to analyze EEG frequency and EMG activity signals in detail and to determine sleep and wake states. Thereafter, accumulated sleeping time over 3 hours was calculated.
The effect of the compound to increase sleep time was evaluated as the difference between sleeping time on the vehicle-administration day and the sleep time on the subsequent drug-administration day.
The minimum effective dose (MED; mg/kg) was obtained from accumulated sleep time of mice with three hours after the administration.

OX1 [1] = biological target: T1, OX1 (Homo sapiens, UniProt O43613); assay: Measurement of orexin receptor-binding ability ([125I]-OX-A, cell membranes, OX1); design: expressed in transfected cells; host or cells: CHO cells (membrane preparation)
T1 sequence (O43613 1-425): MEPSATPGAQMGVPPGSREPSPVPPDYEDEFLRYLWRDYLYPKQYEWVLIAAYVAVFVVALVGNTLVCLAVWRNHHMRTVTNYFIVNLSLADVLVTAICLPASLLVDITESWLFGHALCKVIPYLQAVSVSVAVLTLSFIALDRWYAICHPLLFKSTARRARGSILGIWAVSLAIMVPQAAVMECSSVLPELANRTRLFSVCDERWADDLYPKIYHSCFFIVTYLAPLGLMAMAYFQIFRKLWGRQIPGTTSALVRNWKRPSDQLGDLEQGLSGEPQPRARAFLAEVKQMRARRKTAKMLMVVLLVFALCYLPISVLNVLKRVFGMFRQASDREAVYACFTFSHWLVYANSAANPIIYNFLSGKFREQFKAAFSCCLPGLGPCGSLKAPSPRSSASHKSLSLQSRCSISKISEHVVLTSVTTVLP

OX2 [2] = biological target: T2, OX2 (Homo sapiens, UniProt O43614); assay: Measurement of orexin receptor-binding ability ([125I]-OX-A, cell membranes, OX2); design: expressed in transfected cells; host or cells: CHO cells (membrane preparation); details: membranes of recombinant CHO cells expressing OX2, 0.2 nM [125I]-OX-A
T2 sequence (O43614 1-444): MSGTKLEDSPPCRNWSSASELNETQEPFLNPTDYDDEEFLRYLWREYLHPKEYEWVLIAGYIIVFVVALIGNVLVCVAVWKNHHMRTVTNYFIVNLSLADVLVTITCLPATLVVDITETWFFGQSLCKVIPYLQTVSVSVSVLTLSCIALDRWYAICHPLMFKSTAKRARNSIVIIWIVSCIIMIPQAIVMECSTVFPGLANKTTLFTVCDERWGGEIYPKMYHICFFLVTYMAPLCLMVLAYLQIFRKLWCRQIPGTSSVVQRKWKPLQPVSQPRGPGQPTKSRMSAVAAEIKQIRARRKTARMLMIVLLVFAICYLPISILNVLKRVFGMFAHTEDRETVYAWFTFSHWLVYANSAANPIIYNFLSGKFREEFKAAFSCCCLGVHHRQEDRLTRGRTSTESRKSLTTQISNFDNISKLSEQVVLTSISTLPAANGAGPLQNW

OX1 [3] = biological target: T1, OX1; assay: Measurement of antagonism (PLAP assay), OX1; type: cell-based; design: expressed in transfected cells; host or cells: HEK-293 cells, expression vector pBabeCLIH
Description: (§1) 2. Measurement of Antagonism (PLAP Assay)
(§2) The antagonistic function of the compound of the present invention to prevent the activation of OX2 and OX1 by orexin-A (OX-A), which is a natural peptide agonist, was measured using a cell-based reporter assay. […] The cells were plated at a density of 10,000 cells/well onto a non-coated 96-well plate in Dulbecco's modified Eagle medium (Sigma Cat No. D6046:10% v/v heat-inactivated fetal bovine serum was contained). The cells were cultured at 37° C. overnight, so that they could adhere to the plate. On the following day, cells were incubated with a compound of the present invention dissolved in Dulbecco's modified Eagle medium (Sigma Cat No. A8806:0.1% w/v bovine serum albumin was contained), and added to the cell plate to reach a final concentration of 0.1% dimethyl sulfoxide.
(§3) The thus obtained mixture was incubated at room temperature for 1 hour. Thereafter, human OX-A and forskolin were dissolved in the same medium as described above, which contained fetal bovine serum albumin, and the medium was then added to the cells, resulting in a final concentration of 300 nM forskolin. Subsequently, the cells were cultured at 37° C. for approximately 18 to 24 hours.

OX2 [4] = biological target: T2, OX2; assay: Measurement of antagonism (PLAP assay), OX2; type: cell-based; design: expressed in transfected cells; host or cells: HEK-293 cells, expression vector pBabeCLIH
Description: as §1, §2, §3

[5] = mice, oral administration, difference to vehicle day, 3 hours
[6] = membranes of recombinant CHO cells expressing OX1, 0.2 nM [125I]-OX-A, read-out: OX1 (IC50)
[7] = HEK-293 cells expressing human OX1, 1 nM human OX-A, IC50 converted by Cheng-Prusoff equation, read-out: OX1 (Ki)
[8] = HEK-293 cells expressing human OX2, 1 nM human OX-A, IC50 converted by Cheng-Prusoff equation, read-out: OX2 (Ki)

| SMILES | IC50 (OX1 [1]; [6]) | IC50 (OX2 [2]; read-out: OX2 (IC50)) | Ki (OX1 [3]; [7]) | Ki (OX2 [4]; [8]) | Sleep extended time 10 mg/kg (min/3 hrs) (mice (C57BL/6NCrlCrLj); [5]) | IC50 (OX1 [1]) | IC50 (OX2 [2]; OX2 (IC50) nM) | Ki (OX2 [4]) | Sleep extended time 10 mg/kg (min/3 hrs) (mice (C57BL/6NCrlCrLj); po, 3 h) | also measured |
| --- | --- | --- | --- | --- | --- | --- | --- | --- | --- | --- |
| CNC(=O)[C@@H](c1ccccc1)N1CCc2cc(OC)c(OC)cc2[C@@H]1CCc1ccc(C(F)(F)F)cc1 [almorexant, (2R)-2-{(1S)-6,7-dimethoxy-1-[2-(4-trifluoromethyl-phenyl)ethyl]-3,4-dihydro-1H-isoquinolin-2-yl}-N-methyl-2-phenylacetamide] | – | – | – | – | – | – | – | – | – | REM sleep time and non-REM sleep time (rats): dose-dependently increases both rapid eye movement (REM) sleep time and non-REM sleep time; wakefulness (rats): causes a decrease in wakefulness in rats; sleep latency, sleep efficacy, total sleep time (normal humans): exhibits dose-dependently a reduction of sleep latency, sleep efficacy and extension of total sleep time; sleep efficacy, sleep latency, REM sleep (patients with insomnia): exhibits improvement of sleep efficacy, shortness of sleep latency, increase of REM sleep and improvement of REM sleep ratio |
| Cc1ncc(OC[C@@]2(c3ccccc3F)C[C@H]2C(=O)Nc2ccc(F)cn2)c(C)n1 [Example 263] | – | – | – | – | 27.3 min/3 hrs | 82 nM | 17 nM | 8.6 nM | – | Ki (OX1 [3]): 193 nM |
| CCc1nc(C)ncc1OC[C@@]1(c2cccc(F)c2)C[C@H]1C(=O)Nc1ccccn1 [Example 240, (1R,2S)-2-{[(4-ethyl-2-methylpyrimidin-5-yl)oxy]methyl}-2-(3-fluorophenyl)-N-(pyridin-2-yl)cyclopropanecarboxamide] | – | – | – | – | 7.7 min/3 hrs | 8.7 nM | 2.9 nM | 0.91 nM | – | minimum effective dose (MED) (mice (C57BL/6NCrlCrLj); mice): 10 mg/kg; Ki (OX1 [3]): 18 nM |
| Cc1ncc(OC[C@@]2(c3ccccc3)C[C@H]2C(=O)Nc2ccc(F)cn2)c(C)n1 [Example 1, (1R,2S)-2-{[(2,4-dimethylpyrimidin-5-yl)oxy]methyl}-N-(5-fluoropyridin-2-yl)-2-phenylcyclopropanecarboxamide] | 139 nM | – | 157 nM | – | 18.3 min/3 hrs | – | 6.8 nM | 10 nM | – | minimum effective dose (MED) (mice (C57BL/6NCrlCrLj); mice): 30 mg/kg |
| Cc1ncc(OC[C@@]2(c3ccccc3)C[C@H]2C(=O)Nc2cc(C)c(F)cn2)c(C)n1 [Example 51, (1R,2S)-2-{[(2,4-dimethylpyrimidin-5-yl)oxy]methyl}-N-(5-fluoro-4-methylpyridin-2-yl)-2-phenylcyclopropanecarboxamide] | – | – | – | – | 23.6 min/3 hrs | 6.4 nM | 3.9 nM | 1.2 nM | – | minimum effective dose (MED) (mice (C57BL/6NCrlCrLj); mice): 3 mg/kg; Ki (OX1 [3]): 29 nM |
| CCc1nc(C)ncc1OC[C@@]1(c2ccccc2)C[C@H]1C(=O)Nc1ccc(F)cn1 [Example 119, (1R,2S)-2-{[(4-ethyl-2-methylpyrimidin-5-yl)oxy]methyl}-N-(5-fluoropyridin-2-yl)-2-phenylcyclopropanecarboxamide] | – | – | 21 nM | 0.6 nM | 16.0 min/3 hrs | 21 nM | 5.2 nM | – | – | – |

Second part, led by results:

| IC50 (OX1 [1]; [6]) | IC50 (OX2 [2]; read-out: OX2 (IC50)) | Ki (OX1 [3]; [7]) | Ki (OX2 [4]; [8]) | SMILES | Sleep extended time 10 mg/kg (min/3 hrs) (mice (C57BL/6NCrlCrLj); [5]) | IC50 (OX1 [1]) | IC50 (OX2 [2]; OX2 (IC50) nM) | Ki (OX2 [4]) | Sleep extended time 10 mg/kg (min/3 hrs) (mice (C57BL/6NCrlCrLj); po, 3 h) | also measured |
| --- | --- | --- | --- | --- | --- | --- | --- | --- | --- | --- |
| 1 nM | 1.5 nM | 0.97 nM | 0.06 nM | Cc1ncc(OC[C@@]2(c3cc(F)cc(F)c3)C[C@H]2C(=O)Nc2cc(C)c(F)cn2)c(C)n1 [Example 129, (1R,2S)-2-(3,5-difluorophenyl)-2-{[(2,4-dimethylpyrimidin-5-yl)oxy]methyl}-N-(5-fluoro-4-methylpyridin-2-yl)cyclopropanecarboxamide] | – | – | – | – | 30.0 min/3 hrs | – |
| 3 nM | 6 nM | 0.93 nM | 0.087 nM | Cc1ncc(OC[C@@]2(c3ccc(F)c(F)c3)C[C@H]2C(=O)Nc2cc(C)c(F)cn2)c(C)n1 [Example 164, (1R,2S)-2-(3,4-difluorophenyl)-2-{[(2,4-dimethylpyrimidin-5-yl)oxy]methyl}-N-(5-fluoro-4-methylpyridin-2-yl)cyclopropanecarboxamide] | – | – | – | – | 48.4 min/3 hrs | – |
| 13.9 nM | 6.2 nM | 19 nM | 0.45 nM | Cc1ncc(OC[C@@]2(c3ccccc3)C[C@H]2C(=O)Nc2cc(C)c(Cl)cn2)c(C)n1 [Example 45, (1R,2S)-N-(5-chloro-4-methylpyridin-2-yl)-2-{[(2,4-dimethylpyrimidin-5-yl)oxy]methyl}-2-phenylcyclopropanecarboxamide] | – | – | – | – | 15.2 min/3 hrs | – |
| 40 nM | 1.9 nM | 80 nM | 5.4 nM | Cc1ncc(OC[C@@]2(c3ccccc3)C[C@H]2C(=O)Nc2ccc(Cl)cn2)c(C)n1 [Example 16, (1R,2S)-N-(5-chloropyridin-2-yl)-2-{[(2,4-dimethylpyrimidin-5-yl)oxy]methyl}-2-phenylcyclopropanecarboxamide] | – | – | – | – | 19.0 min/3 hrs | – |
| 123 nM | 7 nM | 273 nM | 5.7 nM | CCc1nc(C)ncc1OC[C@@]1(c2ccccc2)C[C@H]1C(=O)Nc1ccc(C#N)cn1 [Example 120, (1R,2S)-N-(5-cyanopyridin-2-yl)-2-{[(4-ethyl-2-methylpyrimidin-5-yl)oxy]methyl}-2-phenylcyclopropanecarboxamide] | – | – | – | – | 11.5 min/3 hrs | – |
| 10 nM | 3.1 nM | 26 nM | 0.3 nM | CCc1nc(C)ncc1OC[C@@]1(c2ccccc2)C[C@H]1C(=O)Nc1ccc(Cl)cn1 [Example 121, (1R,2S)-N-(5-chloropyridin-2-yl)-2-{[(4-ethyl-2-methylpyrimidin-5-yl)oxy]methyl}-2-phenylcyclopropanecarboxamide] | – | – | – | – | 26.7 min/3 hrs | – |
